The record followed here is patent US9408847B2, “Combination therapy” (Novartis AG, priority 2012, dated 2016).

The experiment relates to MCF7 tumor xenograft. The experiment in a line: MCF7 tumor xenograft model in vivo. Particulars: female nude mice. The method, then: MCF-7 cells were purchased from American Type Culture Collection (ATCC). They were tested free of mycoplasma and viral contamination in the IMPACT VIII PCR assay panel (RADIL, MU Research Animal Diagnostic Laboratory, Columbia, Mo.). They were cultured in EMEM medium (ATCC#30-2003) containing 10% heat inactivated fetal bovine serum, and were at passage 18 for this experiment. Female, nude mice from Harlan (Hsd:Athymic Nude-Foxn1nu) were used in this xenograft study. Mice received 17b-estradiol pellets (0.18 mg/pellet, 90-day release) (Innovative research of America Catalog # NE-121) implanted between the shoulder blades three days before cell implantation. Tumor volume and body weight were monitored throughout the experiment.

As to `COC1CC2CC[C@@H](C)[C@@](O)(O2)C(=O)C(=O)N2CCCC[C@H]2C(=O)OC(C(C)C[C@@H]2CCC(OCCO)[C@H](OC)C2)CC(=O)C(C)/C=C(\C)[C@@H](O)C(OC)C(=O)[C@H](C)CC(C)/C=C/C=C/C=C/1C` (stereo in doubt) [Compound B, (1R,9S,12S,15R,16E,18R,19R,21R,23S,24E,26E,28E,30S,32S,35R)-1,18-dihydroxy-12-{(1R)-2-[(1S,3R,4R)-4-(2-hydroxyethoxy)-3-methoxycyclohexyl]-1-methylethyl}-19,30-dimethoxy-15,17,21,23,29,35-hexamethyl-11,36-dioxa-4-aza-tricyclo[30.3.1.04,9]hexatriaconta-16,24,26,28-tetraene-2,3,10,14,20-pentaone], the T/T0 (monotherapy at 5 mg/kg) is −21%.

In the case of `CN(C)C(=O)c1cc2cnc(Nc3ccc(N4CCNCC4)cn3)nc2n1C1CCCC1` [Compound A], where the note is “monotherapy at 75 mg/kg”, the T/T0 is listed as −9%.
